We go through eight compounds from patent publication US10844062B2, “Pyridine derivative inhibiting RAF kinase and vascular endothelial growth factor receptor, method for preparing same, pharmaceutical composition containing same, and use thereof” (SAMJIN PHARMACEUTICAL CO., LTD., priority 2016, dated 2020).

The subject of one experiment is LS513 KRAS G12V (colon). The experiment in a line: MTT assay. It counts as cell-based. Particulars: Homo sapiens, LS-513, 72 h, 3 days incubation, read-out: MTT assay IC50 KRAS mutant (Colon) LS513 KRAS G12V. The method, boiled down:
(§1)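 Cells were seeded at line-dependent density and stabilised overnight at 37 °C, then exposed to compounds for 3 days at 37 °C. MTT was then added for 2 h and the formazan dissolved in DMSO.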
Background: Tetrazolium assays rely on reduction of a dye to a coloured formazan, in cell work by metabolically active cells.

Experiment [1] deals with VEGFR-2 tyrosine kinase (KDR) (Homo sapiens (Human), UniProt P35968). The experiment in a line: VEGFR-2 tyrosine kinase inhibitory activity (ADP-Glo kinase assay). It counts as biochemical. Particulars: KDR 50 ng. A general note: ADP-Glo first removes unused ATP, then detects ADP through luciferase.
Procedure: The inhibitory activities of the compounds of the present invention against VEGFR-2 tyrosine kinase were analyzed using ADP-Glo™ kinase assay kit commercially available from Promega. In the principle of the analysis, kinase, a substrate and ATP are reacted with one another, and then ADP-Glo™ solution is added thereto. The ATP is removed while leaving the produced ADP, and the remaining ADP is converted to ATP by use of a kinase detection reagent, and the ATP is reacted with a luciferin substrate, and the emitted luminescence is measured.
Reaction time: 30 min (30° C.)/40 min/30 min;
The next experiment concerns the target B-Raf V600E (Homo sapiens (Human), UniProt P15056, V600E). Put plainly: Raf kinase inhibitory activity (Raf/MEK1/MAPK2 cascade, MBP phosphorylation, 32P). It is filed as biochemical. As for the experimental part: (§2) In order to examine the inhibitory activities of the compounds of the present invention against Raf kinases (B-Raf, C-Raf, B-Raf^V600E), the following experiment was performed.
(§3) (1) Consecutive Signal Transduction Reaction
(§4) To a centrifugation tube, 20 μl of a dilution solvent (20 mM MOPS, pH 7.2, 25 mM (3-glycerol phosphate, 5 mM EGTA, 1 mM sodium orthovanadate, 1 mM dithiothreitol) and 20 μl of a Mg/ATP mixture (500 μM ATP and 75 mM magnesium chloride) were added. Then, each of the derivative compounds of formula 1 was added. As a control, 1 ng of activated raf, 0.4 ng of inactivated MEK1 and 1 μg of inactivated MAPK2 were added without adding Example compounds. The solutions in the tube were concentrated at the bottom of the tube by centrifugation, and then allowed to react at 30° C. for 30 minutes, and 4 μl of the mixture solution was taken and used in the next experimental step.
(§5) (2) Phosphorylation of Substrate Protein MBP by MAPK2
(§6) To 4 μl of the mixture solution taken in (1), 10 μl of a dilution solvent, 20 μg of MBP as a substrate, and 10 μl of diluted [γ-32P]ATP (1 μCi/μL) were added. The solutions in the tube were concentrated at the bottom of the tube by centrifugation, and then allowed to react at 30° C. for 30 minutes. 25 μl of the reaction solution was carefully placed on the center of 2 cm×2 cm P81 filter paper for 30 seconds. Next, the filter paper was washed three times with 0.75% phosphoric acid solution for 10 minutes each time and washed once with acetone for 5 minutes. Next, the filter paper was transferred into a scintillation vial, and 5 ml of a scintillation cocktail was added thereto. Raf activity inhibition rate (IC50) was measured by reading the radioactivity with a scintillation counter in comparison with the control.

The next experiment concerns the target C-Raf (Homo sapiens (Human), UniProt P04049). The experiment is described as above. It is filed as biochemical. As for the experimental part: as §2, §3, §4, §5, §6
The target of the next experiment is B-Raf (Homo sapiens (Human), UniProt P15056). The experiment is described as above. It counts as biochemical. As for the experimental part: as §2, §3, §4, §5, §6
In a further experiment the test system is HUVEC (VEGF). The experiment in a line: MTT assay. It counts as cell-based. To be noted: Homo sapiens, 72 h, Table 5, 3 days incubation. The method, boiled down:
as §1

Experiment [2] deals with A-375P BRAF V600E (melanoma). Put plainly: MTT assay. It counts as cell-based. Particulars: A375P, 72 h; Table 5; 3 days incubation. The method, boiled down: as §1
The next experiment deals with SW620 KRAS G12V (colon). The experiment in a line: MTT assay. It is filed as cell-based. To be noted: Homo sapiens, SW-620, 72 h; Table 5; 3 days incubation; read-out: MTT assay IC50 KRAS mutant (Colon) SW620 KRAS G12V. In short, it runs like this:
as §1

Experiment [3] concerns HCT-116 KRAS G13D (colon). The experiment in a line: MTT assay. It counts as cell-based. To be noted: Homo sapiens, HCT-116, 72 h; Table 5; 3 days incubation; read-out: MTT assay IC50 KRAS mutant (Colon) HCT-116 KRAS G13D. The method, boiled down: as §1
Experiment [4] deals with SK-MEL2 NRAS Q61R (melanoma). Put plainly: MTT assay. It is filed as cell-based. Particulars: Homo sapiens, SK-MEL-2, 72 h; Table 5; 3 days incubation. The method, boiled down:
as §1

The subject of another experiment is WiDR BRAF V600E (colon). Put plainly: MTT assay. Particulars: Homo sapiens, 72 h, Table 5, 3 days incubation, read-out: MTT assay IC50 BRAF mutant (Colon) WiDR BRAF V600E. It is filed as cell-based. In short, it runs like this: as §1
Experiment [5] concerns LS513 human colorectal cancer cell line xenograft. The experiment in a line: Antitumor effect on human colorectal cancer LS513 cell line xenograft. To be noted: oral, twice a day, 14 days. It counts as in vivo, Balb/c nu/nu nude mice. The text has this: In this experiment, 5 to 6-week-old female Balb/c nu/nu nude mice (weighed 18 to 20 g) were used. The mice were provided from Nara Biotech Co., Ltd. During the experiment, all the animals were housed on a mouse constant temperature/constant humidity shelf (Individually Ventilated Cages System, LAB & BIO).
Each cage (37.2 cm length×19.2 cm width×13.1 cm height) was sterilized with a sterilizer, and eight mice were received in each cage. The mice were maintained in a hygienic environment controlled to a temperature of 20 to 24° C. and a humidity of 40 to 70% with a 12-hr light/12-hr dark cycle. The mice were allowed to access sterilized feed and drinking water ad libitum. The care and treatment of these animals were carried out according to the Laboratory Animal Care Guidelines of Samjin Pharmaceutical Co., Ltd.
The mice were acclimated to the housing facility for 1 week, and then 0.1 mL of a cell suspension containing 1×10^7 cells was injected subcutaneously into the right flank of each mouse. After cell transplantation, the volume of the formed tumor was measured, and mice with formed tumors having a volume of 150 mm^3 or more were randomly divided into groups (each consisting of 7 to 8 animals) for treatment with the test compounds and a control. […] Administration of the drugs was continued for 14 days. […] At 3-day intervals from the starting day of the administration, the long axis and short axis of the tumor were measured with digital vernier calipers, and the tumor volume was calculated using the following equation and recorded: Tumor volume (TV)=Long axis×short axis^2/2.
Tumor growth inhibition for absolute tumor volume was calculated using the following equation. In the following equation, V0 is the tumor volume on the first day of drug administration (day 0), and Vt is the tumor volume after last drug administration.
On the technique in general: Xenograft models place foreign cells or tissue in a host animal.

Like-named read-outs stand apart in the source and are kept apart here. Where only a bound is given, the exact number is not on record here.

Chain of C-Raf (P04049 whole entry): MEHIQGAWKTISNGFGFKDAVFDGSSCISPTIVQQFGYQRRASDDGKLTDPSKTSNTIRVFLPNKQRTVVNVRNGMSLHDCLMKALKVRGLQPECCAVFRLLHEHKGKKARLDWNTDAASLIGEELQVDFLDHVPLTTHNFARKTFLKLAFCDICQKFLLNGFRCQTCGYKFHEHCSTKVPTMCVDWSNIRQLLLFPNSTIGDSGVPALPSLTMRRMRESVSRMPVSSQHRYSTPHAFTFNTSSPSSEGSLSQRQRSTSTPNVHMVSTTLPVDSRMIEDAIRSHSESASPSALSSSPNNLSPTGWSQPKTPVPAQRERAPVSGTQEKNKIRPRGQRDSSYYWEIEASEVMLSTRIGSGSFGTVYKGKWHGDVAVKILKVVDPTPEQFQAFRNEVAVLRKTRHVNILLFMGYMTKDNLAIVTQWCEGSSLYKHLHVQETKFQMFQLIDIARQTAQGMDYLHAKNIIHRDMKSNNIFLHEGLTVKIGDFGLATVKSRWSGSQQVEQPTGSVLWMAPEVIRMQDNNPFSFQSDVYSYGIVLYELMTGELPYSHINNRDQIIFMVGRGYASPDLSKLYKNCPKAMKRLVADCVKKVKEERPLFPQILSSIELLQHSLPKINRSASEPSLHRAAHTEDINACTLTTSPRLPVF
Chain of B-Raf V600E (P15056 whole entry V600E): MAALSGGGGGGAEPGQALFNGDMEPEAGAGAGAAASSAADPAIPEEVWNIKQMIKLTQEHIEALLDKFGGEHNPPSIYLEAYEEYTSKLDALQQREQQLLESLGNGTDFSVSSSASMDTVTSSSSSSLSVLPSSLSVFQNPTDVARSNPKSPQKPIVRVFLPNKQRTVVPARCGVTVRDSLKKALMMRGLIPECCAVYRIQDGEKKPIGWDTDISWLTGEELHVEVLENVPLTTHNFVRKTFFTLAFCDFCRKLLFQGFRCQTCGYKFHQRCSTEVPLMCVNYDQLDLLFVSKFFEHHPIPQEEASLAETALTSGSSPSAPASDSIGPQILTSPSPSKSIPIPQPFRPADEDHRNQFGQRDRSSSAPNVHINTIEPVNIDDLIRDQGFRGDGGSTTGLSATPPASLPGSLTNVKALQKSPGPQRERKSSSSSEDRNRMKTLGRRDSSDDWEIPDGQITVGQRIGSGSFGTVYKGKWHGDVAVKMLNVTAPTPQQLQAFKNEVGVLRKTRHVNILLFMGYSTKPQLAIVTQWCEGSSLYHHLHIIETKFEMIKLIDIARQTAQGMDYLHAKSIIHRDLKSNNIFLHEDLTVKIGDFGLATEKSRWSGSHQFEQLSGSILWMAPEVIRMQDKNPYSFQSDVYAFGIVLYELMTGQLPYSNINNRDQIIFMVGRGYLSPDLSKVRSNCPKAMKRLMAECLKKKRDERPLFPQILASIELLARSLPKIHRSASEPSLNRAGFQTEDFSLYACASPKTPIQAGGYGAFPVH
Chain of B-Raf (P15056 whole entry): as the sequence (P15056 whole entry V600E) above, with E600V counted along it
Chain of VEGFR-2 tyrosine kinase (KDR) (P35968 20-1356): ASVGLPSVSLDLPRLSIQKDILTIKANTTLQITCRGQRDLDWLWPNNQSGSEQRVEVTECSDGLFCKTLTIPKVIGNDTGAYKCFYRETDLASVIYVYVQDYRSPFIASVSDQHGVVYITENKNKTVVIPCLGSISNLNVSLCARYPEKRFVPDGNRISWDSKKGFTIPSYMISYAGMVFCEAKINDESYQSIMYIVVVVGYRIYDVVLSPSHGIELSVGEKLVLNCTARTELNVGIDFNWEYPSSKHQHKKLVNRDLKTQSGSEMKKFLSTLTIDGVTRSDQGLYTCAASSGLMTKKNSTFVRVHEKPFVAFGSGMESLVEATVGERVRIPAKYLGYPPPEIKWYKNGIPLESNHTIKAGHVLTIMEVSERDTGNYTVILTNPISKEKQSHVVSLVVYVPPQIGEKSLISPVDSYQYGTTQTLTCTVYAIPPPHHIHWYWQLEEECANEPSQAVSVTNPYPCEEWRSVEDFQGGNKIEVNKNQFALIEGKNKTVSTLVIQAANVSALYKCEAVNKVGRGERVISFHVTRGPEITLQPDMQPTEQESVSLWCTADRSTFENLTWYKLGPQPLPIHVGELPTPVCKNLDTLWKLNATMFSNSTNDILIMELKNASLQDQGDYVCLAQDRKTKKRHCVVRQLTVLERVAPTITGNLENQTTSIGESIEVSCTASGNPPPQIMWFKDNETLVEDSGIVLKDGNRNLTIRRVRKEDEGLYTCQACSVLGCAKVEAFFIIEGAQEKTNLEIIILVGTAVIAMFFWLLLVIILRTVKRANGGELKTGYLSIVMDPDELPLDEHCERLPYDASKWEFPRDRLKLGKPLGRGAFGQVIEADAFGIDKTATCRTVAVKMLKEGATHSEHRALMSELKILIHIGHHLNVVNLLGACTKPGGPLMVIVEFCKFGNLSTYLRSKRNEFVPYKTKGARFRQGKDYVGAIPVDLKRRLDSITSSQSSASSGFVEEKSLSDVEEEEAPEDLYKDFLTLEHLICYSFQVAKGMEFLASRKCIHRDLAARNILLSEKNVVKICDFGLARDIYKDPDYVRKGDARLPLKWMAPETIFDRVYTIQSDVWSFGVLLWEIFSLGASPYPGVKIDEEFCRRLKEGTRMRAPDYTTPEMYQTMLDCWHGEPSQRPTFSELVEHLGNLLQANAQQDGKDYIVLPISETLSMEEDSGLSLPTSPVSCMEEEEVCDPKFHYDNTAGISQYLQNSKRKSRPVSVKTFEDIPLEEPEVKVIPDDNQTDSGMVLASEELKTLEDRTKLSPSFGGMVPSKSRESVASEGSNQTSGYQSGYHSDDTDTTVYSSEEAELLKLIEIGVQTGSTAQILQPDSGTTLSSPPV

As a reminder, the IC50 is the concentration that gives 50% inhibition. For `Cc1ccc(NC(=O)c2cccc(C(F)(F)F)c2)cc1Nc1ncccc1-c1ncnc2[nH]cnc12` [Example 71, N-4-Methyl-5-[3-(9H-Purin-6-Yl)Pyridin-2-Ylamino)Phenyl-3-Trifluoromethylbenzamide], the IC50 with LS513 KRAS G12V (colon) (Table 4) was 0.565 µM; in experiment [1] it was 1.6 µM.

`CC(C)(C#N)c1cccc(C(=O)Nc2ccc(F)c(Nc3ncccc3-c3ncnc4[nH]cnc34)c2F)c1` [Example 9, N-(3-(3-(9H-purin-6-yl)pyridin-2-ylamino)-2,4-difluorophenyl)-3-(2-cyanopropan-2-yl)benzamide]: the IC50 on B-Raf V600E stood at 0.0002 µM; at C-Raf, 0.0006 µM; against B-Raf it was 0.002 µM; in the experiment with LS513 KRAS G12V (colon) (Table 4), 0.656 µM; in the experiment with LS513 KRAS G12V (colon) (Table 5), 0.138 µM; in the experiment on HUVEC (VEGF) it was 0.044 µM. The 50% inhibitory concentration (IC50) in [2] was 0.04 µM; in the experiment with SW620 KRAS G12V (colon) it was 0.643 µM; in experiment [3], 0.075 µM; in [4] it was 0.106 µM; in the experiment with WiDR BRAF V600E (colon), 0.058 µM.

Consider `CC(C)(C#N)c1cccc(C(=O)Nc2cc(Nc3ncccc3-c3ncnc4[nH]cnc34)ccc2F)c1` [Example 21, N-(5-(3-(9H-purin-6-yl)pyridin-2-ylamino)-2-fluorophenyl)-3-(2-cyanopropan-2-yl)benzamide], for which the IC50 came out at 0.01 µM at B-Raf V600E; 0.01 µM against C-Raf; 0.021 µM against B-Raf; 0.333 µM in the experiment on LS513 KRAS G12V (colon) (Table 4); 0.16 µM in the experiment on LS513 KRAS G12V (colon) (Table 5); 0.04 µM in the experiment with HUVEC (VEGF). Also, the IC50 in [2] stood at 0.024 µM; with SW620 KRAS G12V (colon) it was 0.249 µM; in experiment [3], 0.063 µM; in experiment [4], 0.129 µM; in the experiment on WiDR BRAF V600E (colon) it was 0.028 µM. For the same compound, the “antitumor effect (tumor growth inhibition) compared to the control group” value in [5] (30 mg/kg) is “about 66.7%”; in [5] (60 mg/kg), 90.3%.

For the compound `O=C(Nc1cc(Nc2ncccc2-c2ncnc3[nH]cnc23)ccc1F)c1cccc(C(F)(F)F)c1` [Example 30, N-(5-(3-(9H-Purin-6-Yl)Pyridin-2-Ylamino)-2-Fluorophenyl)-3-(Trifluoromethyl)Benzamide], the IC50 on B-Raf V600E was 0.0052 µM; against C-Raf, 0.0007 µM; against B-Raf, 0.0027 µM; in the experiment with LS513 KRAS G12V (colon) (Table 4) it was 0.143 µM; in the experiment on LS513 KRAS G12V (colon) (Table 5), 0.079 µM; in the experiment with HUVEC (VEGF), 0.013 µM. Further, the IC50 in experiment [2] is 0.246 µM; with SW620 KRAS G12V (colon), 0.864 µM; in experiment [3], 0.145 µM; in experiment [4], 0.122 µM; in the experiment with WiDR BRAF V600E (colon) it was 0.636 µM. Besides, the “antitumor effect (tumor growth inhibition) compared to the control group” value was 76.9% in experiment [5] (30 mg/kg) and 88.7% in [5] (60 mg/kg).

Regarding `COc1ccc(C(=O)Nc2ccc(F)c(Nc3ncccc3-c3ncnc4[nH]cnc34)c2F)cc1` [Example 53, N-(3-(3-(9H-Purin-6-Yl)Pyridin-2-Ylamino)-2,4-Difluorophenyl)-4-Methoxybenzamide], the IC50 against B-Raf V600E is 0.006 µM; against C-Raf, 0.007 µM; at B-Raf, 0.014 µM; in the experiment with LS513 KRAS G12V (colon) (Table 4) it was greater than 10 µM; with LS513 KRAS G12V (colon) (Table 5), 0.029 µM; with HUVEC (VEGF), 0.0058 µM. In addition, the 50% inhibitory concentration (IC50) was found to be 0.004 µM in experiment [2]; 0.18 µM in the experiment on SW620 KRAS G12V (colon); 0.017 µM in experiment [3]; 0.035 µM in [4]; 0.391 µM in the experiment on WiDR BRAF V600E (colon).

`O=C(Nc1ccc(F)c(Nc2ncccc2-c2ncnc3[nH]cnc23)c1F)c1cccc(C(F)(F)F)c1` [Example 1, N-(3-(3-(9H-purin-6-yl)pyridin-2-ylamino)-2,4-difluorophenyl)-3-(trifluoromethyl)benzamide]: the IC50 on B-Raf V600E stood at 0.016 µM; at C-Raf, 0.023 µM; on B-Raf, 0.034 µM; in the experiment with LS513 KRAS G12V (colon) (Table 4), 1.18 µM; with LS513 KRAS G12V (colon) (Table 5), 0.278 µM; in the experiment with HUVEC (VEGF), 0.022 µM. Further, the IC50 in experiment [2] amounted to 0.095 µM; with SW620 KRAS G12V (colon) it was 0.849 µM; in [3], 0.101 µM; in the experiment on WiDR BRAF V600E (colon) it was 0.115 µM.

Regarding `O=C(Nc1cc(Nc2ncccc2-c2ncnc3[nH]cnc23)ccc1F)c1cc(F)cc(C(F)(F)F)c1` [Example 36, N-(5-(3-(9H-Purin-6-Yl)Pyridin-2-Ylamino)-2-Fluorophenyl)-3-Fluoro-5-(Trifluoromethyl)Benzamide], the IC50 on B-Raf V600E is 0.03 µM; against C-Raf, 0.041 µM; at B-Raf, 0.071 µM; in the experiment with LS513 KRAS G12V (colon) (Table 4) it was 0.25 µM; in the experiment with LS513 KRAS G12V (colon) (Table 5) it was 0.126 µM; with HUVEC (VEGF), 0.015 µM. Besides, the IC50 in experiment [2] is 0.271 µM; in the experiment with SW620 KRAS G12V (colon), 0.675 µM; in [3], 0.117 µM; in experiment [4] it was 0.388 µM; in the experiment on WiDR BRAF V600E (colon), 0.644 µM. In addition, the “antitumor effect (tumor growth inhibition) compared to the vehicle control” value in experiment [5] (60 mg/kg or 30 mg/kg (dose not specified per compound)) is 78.5%.

Regarding `CC(C)(C#N)c1cccc(C(=O)Nc2cccc(Nc3ncccc3-c3ncnc4[nH]cnc34)c2)c1` [Example 23, N-(3-(3-(9H-purin-6-yl)pyridin-2-ylamino)phenyl)-3-(2-cyanopropan-2-yl)benzamide], the IC50 against B-Raf V600E amounted to 0.007 µM; against C-Raf, 0.008 µM; at B-Raf, 0.017 µM; in the experiment with LS513 KRAS G12V (colon) (Table 4) it was 0.687 µM; in the experiment on LS513 KRAS G12V (colon) (Table 5) it was 0.095 µM; with HUVEC (VEGF) it was 0.028 µM. For the same compound, the 50% inhibitory concentration (IC50) in experiment [2] stood at 0.012 µM; in the experiment with SW620 KRAS G12V (colon) it was 0.321 µM; in experiment [3] it was 0.05 µM; in [4], 0.058 µM; in the experiment on WiDR BRAF V600E (colon), 0.062 µM.
